System: apoE−/− mice
Assay: Immunization of apoE−/− mice with peptide in Freund's adjuvant; size of atherosclerotic lesions in the proximal aorta
Type: in vivo
Conditions: for effect of immunization on atherosclerosis: experimental animals (apoE−/− mice)
Procedure: It was hypothesized that the induction of protective immunity could depend on presentation of peptides derived from apoB100 and modified by adduct formation during oxidative modification of the LDL particle. Further, it was hypothesized that such peptides must have a sequence that (i) contains side chains susceptible to adduct formation, and (ii) permits them to bind to MHC class II molecules. The apoB100 sequence was analyzed to identify such motifs. […] A peptide containing this sequence was synthesized and used for immunization of apoE−/− mice. The effect on atherosclerosis was quantified by measuring the size of atherosclerotic lesions after 12 weeks.
8 week old female apoE−/− mice (B6, Apoe−/−, M&B, Ry, Denmark) were immunized with 100 μg of peptide SEQ. ID. NO. 1, and SEQ. ID. NO. 2, respectively, emulsified with Freund's complete adjuvant to a total volume of 50 μl. Mice were boosted after 2 and 4 weeks with 50 μg of peptide in Freund's incomplete adjuvant. A third group of mice consisting of age-matched male mice was injected according to the same scheme with phosphate-buffered saline (PBS) in adjuvant. 4 weeks after the last boost, mice were anesthetized with carbon dioxide and killed by exsanguination after cardiac puncture. After vascular perfusion with sterile RNase-free PBS, the heart and proximal aorta were removed, embedded in OCT compound, frozen and cryosectioned.
The size of atherosclerotic lesions in the proximal aorta was quantified by using Leica Qwin software (for details of the method, see Nicoletti et al., J. Clin. Invest. (1998)) Results were expressed as μm^2 average lesion area per cross-section, as well as relative lesion area, i.e., lesion area (μm^2) divided by total aortic cross-section area (μm^2). The Mann-Whitney U test used for comparisons between means.

Substance	lesion size versus control mice injected with PBS/adjuvant alone (apoE−/− mice, FIG. 1)	lesion size versus mice immunized with peptide SEQ. ID. NO. 2 (apoE−/− mice, FIG. 1)	effect of immunization on atherosclerosis	reduction in lesion size compared to PBS controls (female apoE−/− mice, 100 μg peptide in Freund's complete adjuvant, boosts of 50 μg after 2 and 4 weeks, proximal aorta, p<0.05)	reduction in lesion size compared with peptide SEQ. ID. NO. 2 immunized mice (female apoE−/− mice, same immunization scheme, proximal aorta, p<0.001)	lesions larger than PBS controls (female apoE−/− mice, same immunization scheme, proximal aorta, p<0.05)
NH2-PTVMDFRKFSRNYQLYKSVSLPS-COOH (H-PTVMDFRKFSRNYQLYKSVSLPS-OH) [SEQ. ID. NO. 1, amino acids 625-647 of the human apoB100 protein]	significantly smaller lesions	significantly smaller	inhibition of atherosclerosis	42%	62%	–
NH2-YSKVHNGSEILFSYFQDLVIT-COOH (H-YSKVHNGSEILFSYFQDLVIT-OH) [SEQ. ID. NO. 2]	–	–	aggravates atherosclerosis	–	–	36%

Source: patent US20080070265A1, “PEPTIDE-BASED IMMUNIZATION THERAPY FOR TREATMENT OF ATHEROSCLEROSIS” (CARDIO VAX, priority 2003, published 2008)
